Results on six compounds are retold here after patent publication US10604473B2, “Lipids that increase insulin sensitivity and methods of using the same” (Beth Israel Deaconess Medical Center, Inc., priority 2013, dated 2020).

For experiment [1], the system named is STC-1 cells. Put plainly: ERK phosphorylation in STC-1 cells (immunoblot). The experiment is classed as cell-based. Conditions: 15 minutes stimulation. On the procedure:
For the experiments summarized in FIG. 40, STC-1 cells were incubated with 9-PAHSA, 5-PAHSA or 9-OAHSA at the indicated concentrations. Cells were harvested and lysed and proteins were separated by SDS PAGE and transferred onto nitrocellulose filters. The phosphorylation of ERK and the amount of total ERK was determined by immunoblotting with antibodies specific for total or phosphor-ERK. DMSO was the control. For ERK phosphorylation, cells were serum deprived overnight and stimulated with FAHFAs or vehicle as indicated for 15 minutes followed by lysis in RIPA buffer and analysis by SDS-PAGE
On the technique in general: Immunoblotting shows a protein as a band on a membrane.

The subject of experiment [2] is STC-1 cells. The experiment in a line: GLP-1 secretion from STC-1 enteroendocrine cells (ELISA). The experiment is classed as cell-based. On the procedure: For the experiments summarized in FIG. 41 STC-1 cells were incubated with vehicle (DMSO), 9-PAHSA, 5-PAHSA or 9-OAHSA at the indicated concentrations or lineolic acid (100 uM) as a positive control. Media was harvested and GLP-1 was measured by ELISA.
For the experiments summarized in FIG. 42, the same protocol as described for FIG. 41 was used, except in this experiment a time course was performed. For both FIG. 41 and FIG. 42, for GLP-1 secretion STC1 cells were washed 3× with serum free culture media followed by stimulation with FAHFAs or vehicle at the indicated concentrations and timepoints. Levels of active GLP-1 were measured by ELISA.
A general note: ELISA stands for enzyme-linked immunosorbent assay.

The nature of experiment [3]: FAHFA biosynthesis (FA-CoA:HFA acyltransferase) assay in tissue lysates. The experiment is classed as biochemical. The following applies: 9-HSA and oleoyl-CoA 10 μM, increasing doses of inhibitor. On the procedure:
After first establishing that FA-CoA:HFA acyltransferase activity was membrane-localized in liver (not shown), membrane fractions from liver or WAT tissue lysate were isolated by ultracentrifugation, then resuspended the pellets in PBS buffer and diluted to 1 mg/ml protein concentration. […] Formation of 9-OAHSA was measured by MS/MS, with which the appearance of the parent ion m/z 563 was monitored.
In light of the above results acyltransferase families that have been reported to have a membrane-bound localization and to have the ability to conjugate FA-CoA to a hydrophobic alcohol were targeted. Two of the enzymes, DGAT1 and ACAT, had selective inhibitors that were commercially available, A922500 [20] and CI976 [21], which were used to test their ability to reduce FAHFA production in the biosynthesis assay (inhibitors purchased from Tocris Bioscience).

Experiment [4] can be described thus: FAHFA hydrolysis assay (9-PAHSA to 9-HSA), liver lysate.
Procedure: To establish whether or not FAHFA can be enzymatically degraded, an LC-MS-based in vitro activity assay was developed to measure the hydrolysis of 9-PAHSA to 9-HSA. […] Liver lysate (1 mg/ml protein) was incubated with 100 μM 9-PAHSA at 37° C. for two hours. The reaction mixture was then extracted with one volume ethyl acetate, concentrated under nitrogen gas stream, and reconstituted in 1:1 chloroform:methanol for MS analysis.
The subject of experiment [5] is carboxyl ester lipase (CEL). Put plainly: FAHFA hydrolysis assay, CEL-transfected HEK293T cell lysate. The experiment is classed as biochemical.
Procedure: Plasmid expression clones for these enzymes were obtained, which were under the control of the cytomegalovirus promoter (from the Cravatt lab), with which we transfected HEK293T cells to assess the ability of these enzymes to hydrolyze 9-PAHSA. For the activity assays, cell lysates were diluted according to the relative expression of the three clones according to ABP intensities.
(§1) The experiment was repeated with either liver or pancreas membrane lysate.
Experiment [6] can be described thus: FAHFA hydrolysis assay, pancreas membrane lysate. The experiment is classed as biochemical.
Source text: as §1
The next experiment concerns 3T3-L1 adipocytes. Put plainly: Glucose transport in 3T3-L1 adipocytes. The experiment is classed as cell-based. The following applies: chronic treatment. On the procedure:
FIGS. 54A-D show glucose uptake regulation by PAHSAs and Glut4 translocation via GPR120. FIG. 54A is a bar graph showing insulin-stimulated glucose transport in 3T3-L1 adipocytes treated 9-PAHSA (20 μM) or vehicle (DMSO) control for 6 days. n=6 per group, *p<0.05 compared to vehicle by t-test. FIG. 54B is a bar graph showing insulin (10 nM)-stimulated glucose transport in 3T3-L1 adipocytes transfected with control siRNA or GPR120 siRNA and treated 5-PAHSA (10 μM), 9-PAHSA (10 μM) or vehicle (DMSO) control for 2 days. n=3 per group, *p<0.05 compared to DMSO+control siRNA or GPR120 siRNA alone, $p<0.05 compared to control siRNA or GPR120 siRNA+insulin and GPR120 siRNA+insulin+PAHSA by t-test. FIG. 54C is a panel showing Glut4 plasma membrane translocation in 3T3-L1 adipocytes transfected with control siRNA or GPR120 siRNA and treated with 9-PAHSA in the presence or absence of insulin. 6 separate experiments were carried out without RNAi and 3 experiments with RNAi; each experiment had greater than 50 cells per experimental condition. FIG. 54D is a bar graph showing quantification of Glut4 translocation in panel C. *p<0.05 compared to control siRNA+insulin and GPR120 siRNA+insulin+9-PAHSA by t-test. All data are presented as mean±s.e.m. See also FIG. 57.
For all cell culture experiments, FAHFAs were solubilized in DMSO at a concentration of 20 mM and further diluted in assay buffer or cell culture media to the working concentrations indicated for each assay. In all instances an equivalent volume of vehicle (DMSO) was added to control treatment groups.

Take `CCCCCCCC/C=C\CCCCCCCC(=O)OC(CCCCCCCCC)CCCCCCCC(=O)O` (stereo not drawn) [9-OAHSA]: the ERK phosphorylation result with STC-1 cells [1] is recorded as “induce ERK phosphorylation”. Further, the GLP-1 secretion entry with STC-1 cells [2] is given as “induce GLP-1 secretion”.

Take `O=C(Nc1ccccc1)Nc1ccc(-c2ccc(C(=O)[C@@H]3CCC[C@H]3C(=O)O)cc2)cc1` [A922500]: the “9-OAHSA levels (FAHFA production)” value in experiment [3] is listed as “no change in 9-OAHSA levels”.

As to `CCCCCCCCCCC(C)(C)C(=O)Nc1c(OC)cc(OC)cc1OC` [CI976], the “9-OAHSA levels (FAHFA production)” value in experiment [3] is “no change in 9-OAHSA levels”.

With `C[C@H](CCC(=O)NCCS(=O)(=O)O)[C@H]1CC[C@H]2[C@@H]3[C@H](O)C[C@@H]4C[C@H](O)CC[C@]4(C)[C@H]3C[C@H](O)[C@]12C` [NaTC, sodium taurocholate], the “bile-salt activation of FAHFA hydrolysis” value in experiment [4] was “not enhanced”; in experiment [5], “enhanced”; in experiment [6] it was “markedly increased”.

As for `CCCCCCCCC(O)CCCCCCCCC(=O)O` (stereo not drawn) [hydroxystearic acid], the insulin-stimulated glucose transport result in the experiment with 3T3-L1 adipocytes is recorded as “impaired insulin-stimulated glucose transport”.

As to `CCCCCCCCCCCCCCCC(=O)O` [palmitic acid], in the experiment with 3T3-L1 adipocytes, the insulin-stimulated glucose transport result is recorded as “impaired insulin-stimulated glucose transport”.
